How the values were obtained:
[1] = tested on: antibodies in sera from SARS patients (sera 1a, 1b, 2, 6, 37, 62, London, SARS-yellow, SARS-green); type: binding, human; parameters: Binding of serum 6 to linear peptides of protein X1 of SARS-CoV Urbani / Binding of serum 37 to linear peptides of protein X1 of SARS-CoV Urbani / Binding of serum 6 to looped/cyclic peptide (PEPSCAN-ELISA) / Binding of serum 37 to looped/cyclic peptide (PEPSCAN-ELISA) / Binding of serum 37 to looped/cyclic peptides of protein X1 of SARS-CoV Urbani / Binding of serum 6 to linear peptides of protein X2 / Binding of serum 37 to linear peptides of protein X2 / Binding of serum 37 to looped/cyclic peptides of protein X2 of SARS-CoV Urbani / Binding of serum 6 to linear peptides of protein M of SARS-CoV Urbani / Binding of serum 37 to linear peptides of protein M of SARS-CoV Urbani / Binding of serum 6 to looped/cyclic peptides of protein M of SARS-CoV Urbani / Binding of serum 37 to looped/cyclic peptides of protein M of SARS-CoV Urbani / Binding of serum 6 to linear peptides of protein X3 of SARS-CoV Urbani / Binding of serum 37 to linear peptides of protein X3 of SARS-CoV Urbani / Binding of serum 37 to looped/cyclic peptides of protein X3 of SARS-CoV Urbani / Binding of serum 6 to linear peptides of protein X4 of SARS-CoV Urbani / Binding of serum 37 to linear peptides of protein X4 of SARS-CoV Urbani / Binding of serum 37 to looped/cyclic peptides of protein X4 of SARS-CoV Urbani / Binding of serum 6 to linear peptides of protein X5 of SARS-CoV Urbani / Binding of serum 37 to linear peptides of protein X5 of SARS-CoV Urbani / Binding of serum 37 to looped/cyclic peptides of protein X5 of SARS-CoV Urbani / Binding of serum 6 to linear peptides of protein N of SARS-CoV Urbani / Binding of serum 37 to linear peptides of protein N of SARS-CoV Urbani / Binding of serum 6 to linear peptide (PEPSCAN-ELISA) / Binding of serum 1a to looped/cyclic peptides of protein N of SARS-CoV Urbani / Binding of serum 1b to looped/cyclic peptides of protein N of SARS-CoV Urbani / Binding of serum 2 to looped/cyclic peptides of protein N of SARS-CoV Urbani / Binding of serum 6 to looped/cyclic peptides of protein N of SARS-CoV Urbani / Binding of serum 37 to looped/cyclic peptides of protein N of SARS-CoV Urbani / Binding of serum 62 to looped/cyclic peptides of protein N of SARS-CoV Urbani / Binding of serum London to looped/cyclic peptides of protein N of SARS-CoV Urbani / Binding of serum SARS-green to looped/cyclic peptides of protein N of SARS-CoV Urbani: unit not given here
[2] = tested on: rabbit serum obtained by immunizing a rabbit with the SARS-CoV strain Frankfurt 1; type: binding
[3] = tested on: recombinant human anti-SARS-CoV antibody 03-018; type: binding; parameters: Binding of antibody 03-018 to linear peptides of the N protein of SARS-CoV Urbani / Binding of antibody 03-018 to looped/cyclic peptides of the N protein of SARS-CoV Urbani: unit not given here

Sequence | Binding of serum 1a to linear peptide (PEPSCAN-ELISA) [1] | Binding of serum 1a to looped/cyclic peptides of protein N of SARS-CoV Urbani [1] | Binding of serum 1b to linear peptide (PEPSCAN-ELISA) [1] | Binding of serum 1b to looped/cyclic peptides of protein N of SARS-CoV Urbani [1] | Binding of serum 2 to linear peptide (PEPSCAN-ELISA) [1] | Binding of serum 2 to looped/cyclic peptides of protein N of SARS-CoV Urbani [1] | Binding of serum 6 to linear peptide (PEPSCAN-ELISA) [1] | Binding of serum 6 to looped/cyclic peptides of protein N of SARS-CoV Urbani [1] | Binding of serum 37 to linear peptide (PEPSCAN-ELISA) [1] | Binding of serum 37 to looped/cyclic peptides of protein N of SARS-CoV Urbani [1] | Binding of serum 62 to linear peptide (PEPSCAN-ELISA) [1] | Binding of serum 62 to looped/cyclic peptides of protein N of SARS-CoV Urbani [1] | Binding of serum London to linear peptide (PEPSCAN-ELISA) [1] | Binding of serum London to looped/cyclic peptides of protein N of SARS-CoV Urbani [1] | Binding of serum SARS-green to linear peptide (PEPSCAN-ELISA) [1] | Binding of serum SARS-green to looped/cyclic peptides of protein N of SARS-CoV Urbani [1] | Binding of serum SARS-yellow to linear peptide (PEPSCAN-ELISA) [1] | Binding of serum SARS-yellow to looped/cyclic peptides of protein N of SARS-CoV Urbani [1] | Recognition of the peptide by the rabbit serum [2] | Binding of antibody 03-018 to linear peptides of the N protein of SARS-CoV Urbani [3] | also measured
NSTPGSSRGNSPARM | 0.7 | 0.8 | 0.5 | 0.7 | 0.4 | 0.6 | 0.6 | 0.4 | 1.2 | 0.6 | 1.2 | 0.6 | 1.6 | 0.5 | 1.8 | 0.4 | 1.5 | 0.4 | recognized | 0.2 | Binding of antibody 03-018 to looped/cyclic peptides of the N protein of SARS-CoV Urbani [3]: 0.3
PGSSRGNSPARMASG | 0.3 | 0.4 | 0.2 | 0.2 | 0.3 | 0.5 | 0.2 | 0.4 | 0.6 | 0.6 | 0.6 | 0.6 | 0.5 | 0.5 | 0.5 | 0.5 | 0.7 | 0.4 | recognized | 0.1 | Binding of antibody 03-018 to looped/cyclic peptides of the N protein of SARS-CoV Urbani [3]: 0.3
